The record followed here is PubChem BioAssay (NCI).

Test systems include OVCAR-8 ovarian; OVCAR-4 ovarian; UACC-62 melanoma; MDA-MB-231 breast; NCI-H23 lung; HCC-2998 colon; BT-549 breast; NCI-H226 lung; MALME-3M melanoma; SN12C renal.
Holding throughout (experiment): NCI tumour cell line growth inhibition, 48 h

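Where inhibition never reached the appropriate level, the endpoint shown equals the highest concentration tested. Otherwise, values were interpolated linearly from a five-concentration, 48-hour dose response in 96-well plates. GI50 = concentration required for 50% inhibition of growth. TGI marks complete inhibition of growth.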

Take `COc1c2ccccc2c(O)c2c(=O)c(C(=O)O)cn(C)c12`: the GI50 with OVCAR-8 ovarian was above 100 µM; with OVCAR-4 ovarian, above 100 µM; in the experiment on UACC-62 melanoma, 24.7 µM; in the experiment on MDA-MB-231 breast, above 100 µM; in the experiment on NCI-H23 lung, above 100 µM; in the experiment on HCC-2998 colon, above 100 µM. In addition, the results for the GI50 with BT-549 breast and in the experiment on NCI-H226 lung were above 100 µM and 17.4 µM, respectively. The TGI in the experiment with OVCAR-8 ovarian, in the experiment with OVCAR-4 ovarian, in the experiment on UACC-62 melanoma, with MDA-MB-231 breast, in the experiment with NCI-H23 lung and with HCC-2998 colon was above 100 µM each time. Further, the TGI in the experiment on BT-549 breast and in the experiment with NCI-H226 lung was above 100 µM in each case.
With `COc1cc2c3c(n(CCCN4CCN(C)CC4)c(=O)c2cc1OC)-c1cc2c(cc1C3=O)OCO2`, the GI50 in the experiment on MALME-3M melanoma is 24.8 µM; in the experiment on OVCAR-8 ovarian it was 18.1 µM; with OVCAR-4 ovarian, 4.17 µM; in the experiment on UACC-62 melanoma it was 15.1 µM; in the experiment on MDA-MB-231 breast, 15.3 µM; in the experiment with SN12C renal it was 11.4 µM. Further, the GI50 was 11.9 µM in the experiment on NCI-H23 lung, 80.8 µM in the experiment on BT-549 breast and 13.9 µM in the experiment with NCI-H226 lung. Besides, the TGI in the experiment with MALME-3M melanoma came to 42.3 µM; in the experiment on OVCAR-8 ovarian it was 46.5 µM; in the experiment on OVCAR-4 ovarian, 18.6 µM; in the experiment on UACC-62 melanoma, 34.2 µM; in the experiment on MDA-MB-231 breast, 32.4 µM; with SN12C renal, 24.1 µM. The TGI in the experiment with NCI-H23 lung was 24.1 µM; with BT-549 breast, above 100 µM; with NCI-H226 lung it was 31 µM.
`COc1cc2c3c(n(CCN)c(=O)c2cc1OC)-c1cc2c(cc1C3=O)OCO2`: the GI50 with MALME-3M melanoma was 0.24 µM; in the experiment with OVCAR-8 ovarian, 1.12 µM; in the experiment on OVCAR-4 ovarian, 1.43 µM; with UACC-62 melanoma, 0.134 µM; in the experiment on MDA-MB-231 breast, 0.255 µM; in the experiment on SN12C renal, 0.254 µM. The GI50 with NCI-H23 lung is 0.0788 µM; in the experiment on BT-549 breast it was 0.959 µM; with NCI-H226 lung it was 0.769 µM. Also, the TGI in the experiment on MALME-3M melanoma stood at 6.12 µM; with OVCAR-4 ovarian, 3.02 µM; in the experiment on UACC-62 melanoma, 1.51 µM; in the experiment with MDA-MB-231 breast, 0.84 µM; in the experiment with SN12C renal, 1.3 µM; with NCI-H23 lung, 1.06 µM. Moreover, the TGI in the experiment with BT-549 breast was 3.01 µM; in the experiment on NCI-H226 lung it was 2.55 µM.
In the case of `Cn1ccc(=Nc2ccc(NC(=O)c3ccc(N=c4ccn(C)c5ccc([N+](=O)[O-])cc45)cc3)cc2)cc1`, the GI50 with MALME-3M melanoma was 2.41 µM; in the experiment with OVCAR-8 ovarian, above 100 µM; with UACC-62 melanoma, 17.8 µM; in the experiment with MDA-MB-231 breast, 6.82 µM; in the experiment with SN12C renal, 5.09 µM; in the experiment on NCI-H23 lung, 43.9 µM. The GI50 was 3.85 µM in the experiment with HCC-2998 colon, 71.5 µM in the experiment with BT-549 breast and 74.3 µM in the experiment with NCI-H226 lung. Moreover, the TGI is 37.9 µM with MALME-3M melanoma; above 100 µM in the experiment on OVCAR-8 ovarian; above 100 µM with UACC-62 melanoma; above 100 µM in the experiment with MDA-MB-231 breast; above 100 µM in the experiment with SN12C renal; above 100 µM with NCI-H23 lung. In addition, the TGI in the experiment with HCC-2998 colon, in the experiment on BT-549 breast and in the experiment with NCI-H226 lung was above 100 µM each time.
Turning to `O=C(O)c1cc2ccccc2c(N=Nc2c([N+](=O)[O-])cc([N+](=O)[O-])cc2S(=O)(=O)O)c1O`, the TGI with MALME-3M melanoma, in the experiment on OVCAR-8 ovarian, in the experiment on OVCAR-4 ovarian, with UACC-62 melanoma, in the experiment on MDA-MB-231 breast and in the experiment with SN12C renal was above 100 µM in each case. Besides, the TGI in the experiment on NCI-H23 lung, in the experiment on BT-549 breast and with NCI-H226 lung was above 100 µM each time.
In the case of `N#Cc1c[nH]n2ccnc12`, the TGI in the experiment on OVCAR-8 ovarian, with OVCAR-4 ovarian, with UACC-62 melanoma, with MDA-MB-231 breast, in the experiment on SN12C renal and in the experiment with NCI-H23 lung was above 100 µM in each case. Besides, the TGI with HCC-2998 colon, in the experiment on BT-549 breast and in the experiment with NCI-H226 lung was above 100 µM in each case.
On to `O=C1C(Cl)=C(Nc2ccc3cn[nH]c3c2)C(=O)c2ccccc21`, for which the GI50 with MALME-3M melanoma is 0.666 µM; in the experiment with OVCAR-8 ovarian it was 1.52 µM; in the experiment with OVCAR-4 ovarian, 1.31 µM; in the experiment on UACC-62 melanoma, 1.5 µM; in the experiment on MDA-MB-231 breast it was 1.41 µM; in the experiment on SN12C renal, 1.49 µM. Moreover, the GI50 in the experiment on NCI-H23 lung is 0.413 µM; with HCC-2998 colon it was 2.02 µM; in the experiment on BT-549 breast, 1.5 µM. For the same compound, the TGI with MALME-3M melanoma was 1.95 µM; in the experiment with OVCAR-8 ovarian, 3.01 µM; with OVCAR-4 ovarian, 2.58 µM; with UACC-62 melanoma, 2.93 µM; with MDA-MB-231 breast, 2.73 µM; with SN12C renal, 3.11 µM. Further, the figures for the TGI in the experiment on NCI-H23 lung, in the experiment on HCC-2998 colon and with BT-549 breast were 1.81 µM, 3.99 µM and 2.82 µM, respectively.
In the case of `N#C/C(=C\c1ccc(Br)cc1)n1nnc2cccc(F)c21`, the GI50 is 2.59 µM with OVCAR-8 ovarian; 1.65 µM with OVCAR-4 ovarian; 1.35 µM in the experiment with UACC-62 melanoma; 1.63 µM in the experiment with MDA-MB-231 breast; 1.55 µM in the experiment on SN12C renal; 1.43 µM in the experiment with NCI-H23 lung. For the same compound, the GI50 in the experiment on HCC-2998 colon was 1.56 µM; in the experiment with BT-549 breast, 1.45 µM; in the experiment with NCI-H226 lung it was 1.57 µM. Also, the TGI in the experiment with OVCAR-8 ovarian turned out to be 13.6 µM; in the experiment with OVCAR-4 ovarian, 3.49 µM; with UACC-62 melanoma, 3.46 µM; in the experiment with MDA-MB-231 breast, 3.46 µM; with SN12C renal it was 3.14 µM; in the experiment on NCI-H23 lung it was 3.07 µM. The values for the TGI with HCC-2998 colon, in the experiment with BT-549 breast and in the experiment with NCI-H226 lung were 3.13 µM, 3.1 µM and 3.45 µM, respectively.
Regarding `COC(=O)c1c2c(c(C)[n+]([O-])c1C)C(=O)C=C(NCc1cccc(OC)c1)C2=O`, the GI50 was 0.15 µM in the experiment on MALME-3M melanoma; 0.29 µM in the experiment on OVCAR-8 ovarian; 0.246 µM in the experiment with OVCAR-4 ovarian; 0.25 µM in the experiment on UACC-62 melanoma; 0.358 µM with MDA-MB-231 breast; 0.323 µM with SN12C renal. Further, the GI50 in the experiment with NCI-H23 lung was 0.515 µM; in the experiment with BT-549 breast, 1.29 µM; in the experiment with NCI-H226 lung, 1.72 µM. Moreover, the TGI in the experiment on MALME-3M melanoma was 0.341 µM; in the experiment on OVCAR-8 ovarian it was 1.4 µM; in the experiment with OVCAR-4 ovarian, 0.993 µM; in the experiment with UACC-62 melanoma, 1.07 µM; in the experiment with MDA-MB-231 breast, 4.83 µM; in the experiment on SN12C renal, 1.24 µM. Besides, the figures for the TGI with NCI-H23 lung, in the experiment on BT-549 breast and with NCI-H226 lung were 2.57 µM, 2.65 µM and 4.48 µM, respectively.
